The pIC50 is the IC50 on a negative log10 scale, so that one unit is a factor of ten.

pIC50: −log10 of the molar value.

The target of this test is T1, human recombinant P2X7 receptor (Homo sapiens, UniProt Q99572).
T1 construct: expressed in transfected cells
T1 sequence (Q99572 1-595): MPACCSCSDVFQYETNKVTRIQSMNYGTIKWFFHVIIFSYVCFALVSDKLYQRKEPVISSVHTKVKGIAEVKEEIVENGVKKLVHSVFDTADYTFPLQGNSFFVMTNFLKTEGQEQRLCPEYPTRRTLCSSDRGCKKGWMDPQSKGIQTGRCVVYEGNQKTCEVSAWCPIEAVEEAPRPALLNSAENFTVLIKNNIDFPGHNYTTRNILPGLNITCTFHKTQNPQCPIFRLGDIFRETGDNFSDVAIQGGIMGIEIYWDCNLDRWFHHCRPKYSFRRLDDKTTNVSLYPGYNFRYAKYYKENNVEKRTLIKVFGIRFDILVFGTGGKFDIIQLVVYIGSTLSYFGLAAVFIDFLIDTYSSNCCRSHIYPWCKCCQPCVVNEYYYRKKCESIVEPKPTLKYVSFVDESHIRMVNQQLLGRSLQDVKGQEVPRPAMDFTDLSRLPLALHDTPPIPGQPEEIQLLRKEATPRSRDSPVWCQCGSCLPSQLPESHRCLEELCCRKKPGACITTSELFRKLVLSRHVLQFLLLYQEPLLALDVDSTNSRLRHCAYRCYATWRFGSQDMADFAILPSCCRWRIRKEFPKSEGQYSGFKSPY
As to the kind of experiment: YO-PRO assay: P2X7 receptor antagonistic activity in HEK cells stably expressing P2X7. It is filed as cell-based. The settings on record: antagonistic activity with respect to the P2X7 receptor, read-out: IC50. A digest of the protocol:
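HEK cells stably transfected with human P2X7 (cloned from blood cDNA) were loaded with 0.5 μM YO-PRO-1. They were exposed to antagonist (10 concentrations, top 10 μM, 1/3 steps, duplicate) together with 250 μM ATP for 90 min, and dye uptake was read by FLIPR at ex 485/em 530. IC50 from maximum fluorescence versus concentration.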
As to `Cc1ncc(C(CNC(=O)c2ccc3[nH]ccc3c2Cl)N2CCCC(F)(F)C2)cn1` (racemic) [Example 79, rac-4-Chloro-1H-indole-5-carboxylic acid [2-(3,3-difluoro-piperidin-1-yl)-2-(2-methyl-pyrimidin-5-yl)-ethyl]-amide], the pIC50 is 8.03.

Consider `Cc1ncc(C(CNC(=O)c2ccc3[nH]ccc3c2Cl)N2CCCCCC2)cn1` (racemic) [Example 80, rac-4-Chloro-1H-indole-5-carboxylic acid [2-azepan-1-yl-2-(2-methyl-pyrimidin-5-yl)-ethyl]-amide], for which the pIC50 was 7.60.

Consider `Cc1ncc(C(CNC(=O)c2ccc3[nH]ccc3c2Cl)N2CCCOCC2)cn1` (racemic) [Example 81, rac-4-Chloro-1H-indole-5-carboxylic acid [2-(2-methyl-pyrimidin-5-yl)-2-[1,4]oxazepan-4-yl-ethyl]-amide], for which the pIC50 is 7.59.

For the molecule `Cc1ncc(C(CNC(=O)c2ccc3[nH]ccc3c2Cl)N2CCC(F)(F)C2)cn1` (racemic) [Example 82, rac-4-Chloro-1H-indole-5-carboxylic acid [2-(3,3-difluoro-pyrrolidin-1-yl)-2-(2-methyl-pyrimidin-5-yl)-ethyl]-amide], the pIC50 was 7.47.

`Cc1ncc(C(CNC(=O)c2ccc3[nH]ccc3c2Cl)NC2CCCC2)cn1` (racemic) [Example 83, rac-4-Chloro-1H-indole-5-carboxylic acid [2-cyclopentylamino-2-(2-methyl-pyrimidin-5-yl)-ethyl]-amide]: the pIC50 is 6.79.

Turning to `Cc1ncc(C(CNC(=O)c2ccc3[nH]ccc3c2Cl)NCC2CCCC2)cn1` (racemic) [Example 84, rac-4-Chloro-1H-indole-5-carboxylic acid [2-(cyclopentylmethyl-amino)-2-(2-methyl-pyrimidin-5-yl)-ethyl]-amide], the pIC50 is 5.83.

`Cc1ncc(C(CNC(=O)c2ccc3[nH]ccc3c2Cl)NCC(C)C)cn1` (racemic) [Example 85, rac-4-Chloro-1H-indole-5-carboxylic acid [2-isobutylamino-2-(2-methyl-pyrimidin-5-yl)-ethyl]-amide]: the pIC50 was 6.52.

For the molecule `Cc1ncc(C(CNC(=O)c2ccc3[nH]ccc3c2Cl)N(C)CC(C)C)cn1` (racemic) [Example 86, rac-4-Chloro-1H-indole-5-carboxylic acid [2-(isobutyl-methyl-amino)-2-(2-methyl-pyrimidin-5-yl)-ethyl]-amide], the pIC50 was 6.55.

Take `Cc1ncc(C(CNC(=O)c2ccc3[nH]ccc3c2Cl)N(C)Cc2ccccc2)cn1` (racemic) [Example 87, rac-4-Chloro-1H-indole-5-carboxylic acid [2-(benzyl-methyl-amino)-2-(2-methyl-pyrimidin-5-yl)-ethyl]-amide]: the pIC50 is 5.58.

`CCC(CC)C(CNC(=O)c1ccc2[nH]ccc2c1Cl)c1cncnc1` (racemic) [Example 88, rac-4-Chloro-1H-indole-5-carboxylic acid (3-ethyl-2-pyrimidin-5-yl-pentyl)-amide]: the pIC50 was 7.82.

As for `Cc1ncc(C(CNC(=O)c2ccc3[nH]ccc3c2Cl)N2CCN(C(=O)OC(C)(C)C)CC2)cn1` (racemic) [Example 89, rac-4-[2-[(4-Chloro-1H-indole-5-carbonyl)-amino]-1-(2-methyl-pyrimidin-5-yl)-ethyl]-piperazine-1-carboxylic acid tert-butyl ester], the pIC50 is 6.56.

With `O=C(NCC(c1cccnn1)N1CCOCC1)c1ccc2[nH]ccc2c1Cl` (racemic) [Example 90, rac-4-Chloro-1H-indole-5-carboxylic acid (2-morpholin-4-yl-2-pyridazin-3-yl-ethyl)-amide], the pIC50 was 5.79.

`O=C(NCC(c1ccnc(O)c1)N1CCOCC1)c1ccc2[nH]ccc2c1Cl` (racemic) [Example 91, rac-4-Chloro-1H-indole-5-carboxylic acid [2-morpholin-4-yl-2-(2-hydroxypyridin-4-yl)-ethyl]-amide]: the pIC50 was 6.45.

Regarding `Cc1ncc(C(CNC(=O)c2ccc3[nH]ccc3c2Cl)N2CCS(=O)(=O)CC2)cn1` (racemic) [Example 92, rac-4-Chloro-1H-indole-5-carboxylic acid [2-(1,1-dioxo-thiomorpholin-4-yl)-2-(2-methyl-pyrimidin-5-yl)-ethyl]-amide], the pIC50 is 7.01.

As to `Cc1ncc(C(CNC(=O)c2ccc3[nH]ccc3c2Cl)C2CCC(F)(F)CC2)cn1` (racemic) [Example 93, rac-4-Chloro-1H-indole-5-carboxylic acid [2-(4,4-difluoro-cyclohexyl)-2-(2-methyl-pyrimidin-5-yl)-ethyl]-amide], the pIC50 is 7.92.

On to `Cc1ncc(C(CNC(=O)c2c(Cl)cc3[nH]ccc3c2Cl)N2CCOCC2)cn1` (racemic) [Example 94, rac-4,6-Dichloro-1H-indole-5-carboxylic acid [2-(2-methyl-pyrimidin-5-yl)-2-morpholin-4-yl-ethyl]-amide], for which the pIC50 is 6.68.

In the case of `Cc1ncc(C(CNC(=O)c2cc(CC(C)C)c3[nH]ccc3c2Cl)N2CCOCC2)cn1` (racemic) [Example 98, rac-4-Chloro-7-isobutyl-1H-indole-5-carboxylic acid [2-(2-methyl-pyrimidin-5-yl)-2-morpholin-4-yl-ethyl]-amide], the pIC50 is 8.00.

Regarding `COCCCc1cc(C(=O)NCC(c2cnc(C)nc2)N2CCOCC2)c(Cl)c2cc[nH]c12` (racemic) [Example 99, rac-4-Chloro-7-(3-methoxy-propyl)-1H-indole-5-carboxylic acid [2-(2-methyl-pyrimidin-5-yl)-2-morpholin-4-yl-ethyl]-amide], the negative logarithm of the IC50 (pIC50) is 7.68.

Take `Cc1ncc(C(CNC(=O)c2ccc3[nH]ccc3c2C)N2CCOCC2)cn1` (racemic) [Example 100, rac-4-Methyl-1H-indole-5-carboxylic acid [2-(2-methyl-pyrimidin-5-yl)-2-morpholin-4-yl-ethyl]-amide]: the pIC50 is 7.72.

For the molecule `CCc1c(C(=O)NCC(c2cnc(C)nc2)N2CCOCC2)ccc2[nH]ccc12` (racemic) [Example 101, rac-4-Ethyl-1H-indole-5-carboxylic acid [2-(2-methyl-pyrimidin-5-yl)-2-morpholin-4-yl-ethyl]-amide], the pIC50 was 7.52.

As for `CC(=O)c1cc(C(=O)NCC(c2cnc(C)nc2)N2CCOCC2)c(Cl)c2cc[nH]c12` (racemic) [Example 102, rac-7-Acetyl-4-chloro-1H-indole-5-carboxylic acid [2-(2-methyl-pyrimidin-5-yl)-2-morpholin-4-yl-ethyl]-amide], the pIC50 was 7.48.

With `Cc1ncc(C(CNC(=O)c2cc(C)c3[nH]ccc3c2C(F)(F)F)N2CCOCC2)cn1` (racemic) [Example 103, rac-7-Methyl-4-trifluoromethyl-1H-indole-5-carboxylic acid [2-(2-methyl-pyrimidin-5-yl)-2-morpholin-4-yl-ethyl]-amide], the pIC50 was 7.59.

Take `Cc1ncc(C(CNC(=O)c2cc(C)c3[nH]ccc3c2C)N2CCOCC2)cn1` (racemic) [Example 104, rac-4,7-Dimethyl-1H-indole-5-carboxylic acid [2-(2-methyl-pyrimidin-5-yl)-2-morpholin-4-yl-ethyl]-amide]: the pIC50 is 7.46.

For the molecule `CCc1cc(C(=O)NCC(c2cnc(C)nc2)N2CCOCC2)c(Cl)c2cc[nH]c12` (racemic) [Example 107, rac-4-Chloro-7-ethyl-1H-indole-5-carboxylic acid [2-(2-methyl-pyrimidin-5-yl)-2-morpholin-4-yl-ethyl]-amide], the pIC50 was 7.82.

On to `Cc1ncc(C(CNC(=O)c2cc(Cl)c3[nH]ccc3c2C)N2CCOCC2)cn1` (racemic) [Example 108, rac-7-Chloro-4-methyl-1H-indole-5-carboxylic acid [2-(2-methyl-pyrimidin-5-yl)-2-morpholin-4-yl-ethyl]-amide], for which the pIC50 is 7.96.

On to `COc1cc(C(=O)NCC(c2cnc(C)nc2)N2CCOCC2)c(C)c2cc[nH]c12` (racemic) [Example 109, rac-7-Methoxy-4-methyl-1H-indole-5-carboxylic acid [2-(2-methyl-pyrimidin-5-yl)-2-morpholin-4-yl-ethyl]-amide], for which the pIC50 is 7.60.

Take `CCOc1cc(C(=O)NCC(c2cnc(C)nc2)N2CCOCC2)c(Cl)c2cc[nH]c12` (racemic) [Example 110, rac-4-Chloro-7-ethoxy-1H-indole-5-carboxylic acid [2-(2-methyl-pyrimidin-5-yl)-2-morpholin-4-yl-ethyl]-amide]: the pIC50 was 7.89.

Consider `CCCc1cc(C(=O)NCC(c2cnc(C)nc2)N2CCOCC2)c(Cl)c2cc[nH]c12` (racemic) [Example 111, rac-4-Chloro-7-propyl-1H-indole-5-carboxylic acid [2-(2-methyl-pyrimidin-5-yl)-2-morpholin-4-yl-ethyl]-amide], for which the pIC50 was 7.74.

On to `Cc1ncc(C(CNC(=O)c2cc(OCCOC(C)(C)C)c3[nH]ccc3c2Cl)N2CCOCC2)cn1` (racemic) [Example 112, rac-7-(2-tert-Butoxy-ethoxy)-4-chloro-1H-indole-5-carboxylic acid [2-(2-methyl-pyrimidin-5-yl)-2-morpholin-4-yl-ethyl]-amide], for which the pIC50 is 7.49.
